Assay results as given in patent US7368475B2, “Furanose-type bicyclic carbohydrates with biological activity” (Kemin Pharma BVBA, priority 2003, dated 2008).
In brackets after ≈: the same amount, converted by molar mass.

Columns and labels:
[1] = test system: A. fumigatus IHEM 2895; assay: microbe, parasite or virus in culture; format: cell-based; conditions: Aspergillus fumigatus, IHEM2895, negative control = 100, read-out: % of growth at a dose of 25 PPM compared to the negative control, A. fumigatus IHEM 2895
[2] = test system: VZV 07/1; assay: microbe, parasite or virus in culture; format: cell-based, Varicella Zoster Virus; conditions: Human alphaherpesvirus 3, HEL, read-out: EC50 VZV (HEL) 07/1
[3] = test system: HSV-2 (G); assay: HSV-2 (G)-induced cytopathicity in human embryo fibroblast E6SM; format: cell-based, Herpes Simplex Virus; conditions: Human alphaherpesvirus 2
[4] = test system: E. coli ATCC 25922; assay: microbe, parasite or virus in culture; format: cell-based; conditions: Escherichia coli, ATCC25922, negative control = 100, read-out: % of growth at 25 PPM compared to negative control, E. coli ATCC 25922
[5] = test system: murine mammary carcinoma cells (FM3A); assay: Inhibition of proliferation of murine mammary carcinoma cells FM3A; format: cell-based; conditions: Mus musculus, cytostatic activity, 50% inhibitory concentration, read-out: IC50 FM3A/0
Method: (§1) The compounds were tested for antitumor activity via the inhibitory effects on the proliferation of murine leukemia cells (L1210/0), murine mammary carcinoma cells (FM3A) and human T-lymphocyte cells (Molt4/C8), (CEM/0). […] Compound A1 and Compound A4 show no effect at concentrations up to 200 ppm.

[6] = test system: Candida albicans ATCC 24433 IHEM 10284; assay: microbe, parasite or virus in culture; format: cell-based; conditions: ATCC24433, negative control = 100, read-out: % of growth at a dose of 25 PPM compared to the negative control, Candida albicans ATCC 24433 IHEM 10284
[7] = test system: P. aeruginosa ATCC 27853 LMG 16217; assay: microbe, parasite or virus in culture; format: cell-based; conditions: Pseudomonas aeruginosa, negative control = 100, read-out: % of growth at 25 PPM compared to negative control, P. aeruginosa ATCC 27853 LMG 16217
[8] = test system: VV; assay: VV-induced cytopathicity in human embryo fibroblast E6SM; format: cell-based, Vaccinia Virus; conditions: for EC50: Orthopoxvirus vaccinia, E6SM, read-out: EC50 VV (E6SM)
[9] = test system: VZV OKA; assay: microbe, parasite or virus in culture; format: cell-based, Varicella Zoster Virus; conditions: Human alphaherpesvirus 3, HEL, read-out: EC50 VZV (HEL) OKA
[10] = test system: C. neoformans ATCC 90112 IHEM 9558; assay: microbe, parasite or virus in culture; format: cell-based; conditions: Cryptococcus neoformans, ATCC90112, negative control = 100, read-out: % of growth at a dose of 25 PPM compared to the negative control, C. neoformans ATCC 90112 IHEM 9558
[11] = test system: S. aureus ATCC 29213 LMG 10147; assay: microbe, parasite or virus in culture; format: cell-based; conditions: Staphylococcus aureus, negative control = 100, read-out: % of growth at 25 PPM compared to negative control, S. aureus ATCC 29213 LMG 10147
[12] = test system: E. faecalis ATCC 29212 LMG 8222; assay: microbe, parasite or virus in culture; format: cell-based; conditions: Enterococcus faecalis, negative control = 100, read-out: % of growth at 25 PPM compared to negative control, E. faecalis ATCC 29212 LMG 8222
[13] = test system: human T-lymphocyte cells (Molt4/C8); assay: Inhibition of proliferation of human T-lymphocyte cells Molt4/C8; format: cell-based; conditions: cytostatic activity, 50% inhibitory concentration
Method: as §1

[14] = test system: human T-lymphocyte cells (CEM/0); assay: Inhibition of proliferation of human T-lymphocyte cells CEM/0; format: cell-based; conditions: CCRF-CEM, cytostatic activity, 50% inhibitory concentration
Method: as §1

[15] = test system: HSV-1 (KOS); assay: HSV-1 (KOS)-induced cytopathicity in human embryo fibroblast E6SM; format: cell-based, Herpes Simplex Virus; conditions: Human alphaherpesvirus 1
[16] = test system: HIV-2 (ROD); assay: HIV-2 (ROD)-induced cytopathicity in human CEM cell cultures; format: cell-based; conditions: Human immunodeficiency virus 2, CCRF-CEM
[17] = test system: CMV AD-169 Strain; assay: CMV plaque formation in HEL cells, AD-169 strain; format: cell-based, human Cytomegalovirus; conditions: for IC50: Human betaherpesvirus 5, AD169, virus plaque formation, HEL cells, virus input 100 PFU; for activity against CMV (in words): strain not specified
[18] = test system: HIV-1 (IIIB); assay: microbe, parasite or virus in culture; format: cell-based; conditions: Human immunodeficiency virus 1, IIIB, CCRF-CEM; HIV-induced cytopathicity in human CEM cell cultures
[19] = test system: murine leukemia cells (L1210/0); assay: Inhibition of proliferation of murine leukemia cells L1210/0; format: cell-based; conditions: for IC50: Mus musculus, L1210/0, read-out: IC50 L1210/0; for effect on cell proliferation (in words): at concentrations up to 200 ppm, L1210/0, FM3A
Method: as §1

[20] = test system: CMV David Strain; assay: CMV plaque formation in HEL cells, David strain; format: cell-based, human Cytomegalovirus; conditions: Human betaherpesvirus 5, virus plaque formation, virus input 100 PFU
[21] = test system: T. mentagrophytes ATCC 9233 IHEM 10342; assay: microbe, parasite or virus in culture; format: cell-based; conditions: Trichophyton mentagrophytes, ATCC9233, negative control = 100, read-out: % of growth at a dose of 25 PPM compared to the negative control, T. mentagrophytes ATCC 9233 IHEM 10342
[22] = test system: C. perfringens ATCC 13124; format: cell-based, Clostridium perfringens; conditions: negative control = 100

SMILES | activity at 25 ppm [1] [%] | EC50 [2] [µg/mL] | EC50 [3] [µg/mL] | activity at 25 ppm [4] [%] | IC50 [5] [µg/mL] | activity at 25 ppm [6] [%] | activity at 25 ppm [7] [%] | EC50 [8] [µg/mL] | EC50 [9] [µg/mL] | activity at 25 ppm [10] [%] | activity at 25 ppm [11] [%] | activity at 25 ppm [12] [%] | IC50 [13] [µg/mL] | IC50 [14] [µg/mL] | EC50 [15] [µg/mL] | EC50 [16] [µg/mL] | IC50 [17] [µg/mL] | IC50 [20] [µg/mL] | activity at 25 ppm [21] [%] | % of growth at 25 PPM compared to negative control, C. perfringens ATCC 13124 [22] [%] | further results
OC[C@H]1O[C@@H](c2ccccc2)[C@H](O)[C@@H]1O [Compound A1, β-D-1-Deoxy-1-phenyl-ribofuranose] | 106 | > 50 | > 400 | 93.4 | > 200 | 89.2 | 92.7 | > 400 | > 50 | 93.3 | 96.7 | 96 | > 200 | > 200 | > 400 | > 100 | > 50 | > 50 | 62.4 |  | melting point: 118 °C; EC50 [18]: > 100 µg/mL; IC50 [19]: > 200 µg/mL; effect on cell proliferation (in words) ([19]; Molt4/C8, CEM/0): no effect
CO[C@@H]1[C@@H]2O[Si](C(C)C)(C(C)C)O[Si](C(C)C)(C(C)C)OC[C@H]2O[C@H]1c1ccccc1 [Compound A3, β-D-1-Deoxy-1-phenyl-2-O-methyl-3,5-O-(1,1,3,3-tetraisopropyldisiloxanylidene)-ribofuranose] | 37.5 | > 2 | > 16 | 91.3 | 15 (≈ 32.1 µM) | 62.2 | 87.6 | > 16 | > 2 | 81.1 | 92.5 | 94.2 | 19 ± 2 (≈ 40.7 µM) | 20 ± 4 (≈ 42.8 µM) | > 16 | > 4 | 1.3 (≈ 2.79 µM) | 1.3 (≈ 2.79 µM) | 64.4 |  | activity against CMV (in words) [17]: significant activity; EC50 [18]: > 4 µg/mL; IC50 [19]: 18 ± 0.5 µg/mL (≈ 38.6 µM); cytostatic activity (in words) ([19]; text summary over L1210/0, FM3A, Molt4/C8, CEM/0): small cytostatic activity
CO[C@@H]1[C@H](O)[C@@H](CO)O[C@H]1c1ccccc1 [Compound A4, β-D-1-Deoxy-1-phenyl-2-O-methyl-ribofuranose] | 70.9 | > 50 | > 400 | 92.8 | > 200 | 110 | 93.5 | > 400 | > 50 | 99.9 | 96.9 | 95.4 | > 200 | > 200 | > 400 | > 100 | > 50 | > 50 | 79.7 |  | EC50 [18]: > 100 µg/mL; IC50 [19]: > 200 µg/mL; effect on cell proliferation (in words) ([19]; Molt4/C8, CEM/0): no effect
CO[C@@H]1[C@@H]2O[C@H](c3ccccc3)OC[C@H]2O[C@H]1c1ccccc1 [Compound A5, β-D-1-Deoxy-1-phenyl-2-O-methyl-3,5-O-benzylidene-ribose] | 57 |  |  | 124 |  | 120 | 91 |  |  | 76 | 92 | 92 |  |  |  |  |  |  | 66 | 95.0 | activity against CMV (in words) [17]: slight
CC(C)[Si]1(C(C)C)OC[C@H]2OC(c3ccccc3)C[C@@H]2O[Si](C(C)C)(C(C)C)O1 (stereo partly drawn) [Compound A6 A + B, α-β-D-1,2-dideoxy-1-phenyl-3,5-O-(1,1,3,3-tetraisopropyldisiloxanylidene)-ribofuranose] | 54 |  |  | 94 |  | 85 | 92 |  |  | 102 | 95 | 95 |  |  |  |  |  |  | 56 | 98.0 | 
CC(=O)OC[C@H]1O[C@@H](c2ccccc2)C[C@@H]1OC(C)=O [Compound A7, β-D-1,2-dideoxy-1-phenyl-ribofuranose-3,5-diacetate] | 95 |  | > 400 | 94.8 |  | 83.4 | 92.7 | > 400 |  | 67.8 | 91.2 | 98.1 |  |  | > 400 |  | > 100 | > 100 | 83 | 95.4 | 
OC[C@H]1O[C@@H](c2ccccc2)C[C@@H]1O [Compound A8, β-D-1,2-dideoxy-1-phenyl-ribofuranose] | 107 |  | > 400 | 99.2 |  | 92.4 | 92.7 | > 400 |  | 84.8 | 92.3 | 95.5 |  |  | > 400 |  | > 100 | > 100 | 95 | 96.2 | melting point: 89 to 91 °C
CC1(C)O[C@H]2O[C@H](COCc3ccccc3)[C@H](OCc3ccccc3)[C@H]2O1 [Compound A9, α-D-1,2-O-isopropylidene-3,5-O-dibenzyl-xylofuranose] | 74 | > 80 | > 80 | 95.6 |  | 85.9 | 93 | 48 (≈ 130 µM) | > 80 | 55.1 | 93.7 | 102 |  |  | > 80 |  | 10.5 (≈ 28.3 µM) | 7.6 (≈ 20.5 µM) | 92 | 95.1 | activity against VV (in words) ([8]; Table 2): slight activity; activity against CMV (in words) [17]: significant activity
